Values quoted from earlier work, collected in patent US20220160704A2, “COMPOSITIONS FOR OPIATE AND OPIOID PREVENTION AND REVERSAL, AND METHODS OF THEIR USE” (Torralva Medical Therapeutics LLC, priority 2018, published 2022).
Where a name gives a salt, the structure may show the parent alone. Read-outs that look alike come from different tables or passages of the source.

How the values were obtained:
[1] = cited from earlier work
[2] = cited from earlier work; remark: listed apart in the source
[3] = cited from earlier work; remark: listed apart in the source
[4] = cited from earlier work; remark: listed apart in the source
[5] = cited from earlier work; remark: listed apart in the source
[6] = pH 7.4; cited from earlier work
[7] = 25° C.; cited from earlier work
[8] = in vivo; cited from earlier work
[9] = cited from earlier work; remark: listed apart in the source
α-1 1A subtype = target: T1, α-1 1A subtype (Homo sapiens, UniProt P35348); details: greater than Prazosin; cited from earlier work
T1 sequence (P35348 1-466): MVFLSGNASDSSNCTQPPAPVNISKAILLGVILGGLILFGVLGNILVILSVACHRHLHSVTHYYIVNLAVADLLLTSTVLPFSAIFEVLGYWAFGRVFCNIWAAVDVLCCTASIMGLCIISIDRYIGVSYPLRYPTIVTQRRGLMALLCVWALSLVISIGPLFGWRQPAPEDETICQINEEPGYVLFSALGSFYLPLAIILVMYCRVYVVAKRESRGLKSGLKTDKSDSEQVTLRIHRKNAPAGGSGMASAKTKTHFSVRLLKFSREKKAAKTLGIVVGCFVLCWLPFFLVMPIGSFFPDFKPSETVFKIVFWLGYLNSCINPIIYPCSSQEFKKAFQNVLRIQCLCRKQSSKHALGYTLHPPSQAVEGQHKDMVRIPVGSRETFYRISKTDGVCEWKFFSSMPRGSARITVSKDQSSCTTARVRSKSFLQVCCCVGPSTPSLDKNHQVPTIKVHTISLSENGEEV

[10] = subcutaneous injection of 10 mg; cited from earlier work

1 H,5 H-Tropan-3-ol (±)-tropate [Atropine]
Dose that can produce a paradoxical bradycardia ([1]; adults): less than 0.5 mg

COc1cc2nc(N(C)CCCNC(=O)C3CCCO3)nc(N)c2cc1OC.Cl (racemic) [ALFUZOSIN, (R,S)—N-[3-[(4-amino-6,7-dimethoxy-2-quinazolinyl)methylamino]propyl]tetrahydro-2-furancarboxamide hydrochloride]
Dizziness ([2]; human, in vivo): 6% | Hypotension ([2]; human, in vivo): 0.4% | Syncope ([2]; human, in vivo): 0.2% | Solubility in dichloromethane / methylene chloride [3]: practically insoluble | Solubility in ethanol / alcohol [3]: sparingly soluble | Solubility in water [3]: freely soluble

COc1cc2nc(N3CCN(C(=O)C4CCCO4)CC3)nc(N)c2cc1OC (racemic) [TERAZOSIN, (RS)-Piperazine, 1-(4-amino-6,7-dimethoxy-2-quinazolinyl)-4-[(tetra-hydro-2-furanyl)carbonyl]-, monohydrochloride, dihydrate]
Postural hypotension ([2]; trial of 600 subjects): 4% | Syncope ([2]; trial subjects): 0.6% | Solubility in isotonic saline [3]: freely soluble | Solubility in water [3]: freely soluble | Half-life (in words) ([4]; in vivo): long half-life

Cl.Clc1cccc(Cl)c1NC1=NCCN1 [Clondine hydrochloride, 2-(2,6-dichlorophenylamino)-2-imidazoline hydrochloride]
Maximum effective daily dose ([1]; oral): 2.4 mg

COc1cc2nc(N3CCN(C(=O)C4COc5ccccc5O4)CC3)nc(N)c2cc1OC (centres unmarked) [DOXAZOSIN, 1-(4-amino-6,7-dimethoxy-2-quinazolinyl)-4-(1,4benzodioxan-2-ylcarbonyl) piperazine methanesulfonate]
Solubility in acetone ([3]; acetone): very slightly soluble | Solubility in dichloromethane / methylene chloride [3]: very slightly soluble | Solubility in dimethylformamide ([3]; dimethylformamide): soluble | Solubility in dimethylsulfoxide ([3]; dimethylsulfoxide): freely soluble | Solubility in ethanol / alcohol [3]: slightly soluble | Solubility in methanol ([3]; methanol): slightly soluble | Solubility in water ([3]; 25° C.): 0.8% | Solubility in water [3]: slightly soluble | Half-life (in words) ([4]; in vivo): long half-life

CNC(C)C(O)c1ccccc1 (stereo not drawn) [Ephedrine, benzenemethanol α-[1-(methylamino)ethyl]-sulfate (2:1) (salt)]
Light stability ([5]; exposure to light): darkens on exposure to light

CCOC(=O)c1ncn2c1CN(C)C(=O)c1cc(F)ccc1-2 [Flumazenil, ethyl 8-fluoro-5,6-dihydro-5-methyl-6-oxo-4H-imidazo[1,5-a](1,4) benzodiazepine-3-carboxylate]
octanol: buffer partition coefficient [6]: 14 to 1 | Solubility in acidic aqueous solutions ([3]; acidic aqueous solutions): slightly soluble | Solubility in water [3]: insoluble

C=CCN1CC[C@]23c4c5ccc(O)c4O[C@H]2C(=O)CC[C@@]3(O)[C@H]1C5.Cl [Naloxone hydrochloride, 17-Allyl-4,5α-epoxy-3,14-dihydroxymorphinan-6-one hydrochloride]
Solubility in chloroform ([3]; chloroform): practically insoluble | Solubility in dilute acids ([3]; dilute acids): soluble | Solubility in ethanol / alcohol [3]: slightly soluble | Solubility in ether ([3]; ether / ethyl ether): practically insoluble | Solubility in strong alkali ([3]; strong alkali): soluble | Solubility in water [3]: soluble

O=C1CC[C@@]2(O)[C@H]3Cc4ccc(O)c5c4[C@@]2(CCN3CC2CC2)[C@H]1O5 [Naltrexone base anhydrous, morphinan-6-one, 17 (cyclopropylmethyl) 4,5-epoxy3,14-dihydroxy-(5a)]
Solubility in ethanol / alcohol [3]: soluble | Solubility in water [3]: insoluble

CN1CCC[C@H]1c1cccnc1 [Nicotine]
Vapor pressure [7]: 5.5 Pa | Crossing of the blood brain barrier [8]: crosses the blood-brain barrier | Miscibility with water ([3]; base form): miscible with water in its base form between 60 °C and 210 °C | Time to reach the brain ([4]; after inhalation): 10 to 20 s | Route of excretion ([4]; in vivo): primarily excreted in urine

COc1cc2nc(N3CCN(C(=O)c4ccco4)CC3)nc(N)c2cc1OC.Cl [PRAZOSIN, 1-(4-amino-6,7-dimethoxy-2-quiazolinyl)-4-(2-furoyl) piperazine]
Syncope and symptoms of hypotension, share of subjects ([2]; 1 mg BID/TID up to 20 mg total QD): 6-12% | Crossing of the blood brain barrier [8]: ability to cross the blood brain barrier | Solubility in isotonic saline [3]: slightly soluble | Solubility in water [3]: slightly soluble

C[C@H](Cc1cc2c(c(C(N)=O)c1)N(CCCO)CC2)NCCOc1ccccc1OCC(F)(F)F [SILODOSIN]
Dizziness and orthostatic hypotension ([2]; 8 mg QD, study of 897 subjects): 3% | Syncope, subjects affected / subjects ([2]; 8 mg QD, study of 897 subjects): 1/897 | Solubility in ethanol / alcohol [3]: freely soluble | Solubility in acetic acid ([3]; glacial acetic acid / acetic acid): very soluble | Solubility in water [3]: very slightly soluble

C[N+](C)(C)CCOC(=O)CCC(=O)OCC[N+](C)(C)C [Succinylcholine]
Storage stability of solutions ([5]; refrigeration): lose potency unless refrigerated | Persistence of maximum blockade ([9]; 0.3-1.1 mg/kg): about 2 minutes | Time to recovery after maximum blockade ([9]; 0.3-1.1 mg/kg): 4 to 6 min | Time until neuromuscular blockade develops ([9]; 0.3-1.1 mg/kg): about 1 minute | Onset of effect given intramuscularly ([9]; intramuscular, up to 3 to 4 mg/kg): 2 to 3 min | Bradycardia ([1]; human, in vivo): bradycardia is common in pediatric patients after an initial dose of 1.5 mg/kg

CCOc1ccccc1OCCN[C@H](C)Cc1ccc(OC)c(S(N)(=O)=O)c1.Cl [Tamsulosin hydrochloride, (−)-(R)-5-[2-[[2-(o-Ethoxyphenoxy)ethyl]amino]propyl]-2-methoxybenzenesulfon-amide, monohydrochloride]
Incidence of hypotension, syncope, vertigo ([2]; Dose 0.4-0.8 mg QD): 0.2%-0.6% | Binding affinity at the 1A subtype over other α-1 antagonists (α-1 1A subtype): 12-30 times | Crossing of the blood brain barrier [8]: ability to cross the blood brain barrier | Half-life (in words) ([4]; in vivo): long half-life

CC[C@@H]1C(=O)OC[C@@H]1Cc1cncn1C [pilocarpine HCl]
Salivation [10]: 1 L

C=CC[N+]1([C@H]2C[C@H]3[C@@H]4CC[C@H]5C[C@H](O)[C@@H](N6CCOCC6)C[C@]5(C)[C@H]4CC[C@]3(C)[C@H]2OC(C)=O)CCCC1.[Br-] [rocuronium bromide, 1-[17β-(acetyloxy)-3α-hydroxy-2β-(4-morpholinyl)-5α-androstan-16β-yl]-1-(2-propenyl)pyrroidinium bromide]
Time in which most patients have intubation completed ([9]; initial dose 0.6 mg/kg): ≤ 2 min | Time to maximum blockade in most patients ([9]; initial dose 0.6 mg/kg): less than 3 minutes | Time to neuromuscular block sufficient for intubation (80% block or greater), median (range) ([9]; initial dose 0.6 mg/kg): 1 (0.4-6) minute(s)
